± gives the standard deviation of the reports.
Row | SMILES | glass transition temperature [°C]
1 | *c1ccc(-c2cc(-c3ccc(OCCCC#N)cc3)cc(-c3ccc(N4C(=O)c5ccc(-c6ccc7c(c6)C(=O)N(*)C7=O)cc5C4=O)cc3)n2)cc1 (repeat unit) | 360.00
2 | *CCOCCOCCOc1ccc(NC(=O)c2cccc(C(=O)Nc3ccc(O*)cc3)c2)cc1 (repeat unit) | 129.00
3 | *CC(*)n1c2ccccc2c2cc3ccccc3cc21 (repeat unit) | 253.00
4 | *ON(C(F)(F)F)C(F)(F)/C(F)=C(\F)C(*)(F)F (repeat unit) | -7.00
5 | *CC(*)(C)C(=O)Oc1c(OC)cc(/C=C/c2ccccc2)cc1OC (repeat unit) | 140.00
6 | *C(=O)c1ccc(Oc2ccc(S(=O)(=O)c3ccc(Oc4ccc(C(=O)c5ccc6c(c5)C(=O)N(c5ccc(Cc7ccc(N8C(=O)c9ccc(*)cc9C8=O)cc7)cc5)C6=O)cc4)cc3)cc2)cc1 (repeat unit) | 245.00
7 | *CCCCCCN1C(=O)C(=O)N(c2ccc(C)c(N3C(=O)C(=O)N(*)C3=O)c2)C1=O (repeat unit) | 181.50
8 | *c1c(C)cc(Cc2cc(C)c(N3C(=O)c4ccc(Oc5cc6ccccc6cc5Oc5ccc6c(c5)C(=O)N(*)C6=O)cc4C3=O)c(C)c2)cc1C (repeat unit) | 265.00
9 | *O[Si](*)(C)CCCCCCCCCCC(=O)Oc1ccc(-c2ccc(OC(=O)c3ccc(OCC)cc3)cc2)cc1 (repeat unit) | 103.40
10 | *Oc1ccc(C(=O)O)c(C(=O)Nc2ccc(NC(=O)c3cc(*)ccc3C(=O)O)cc2)c1 (repeat unit) | 166.30
11 | *c1ccc(-n2c(=O)c3cc4c(=O)n(*)c(=O)c4cc3c2=O)c(S(=O)(=O)[O][Na])c1 (repeat unit) | 227.00
12 | *CC(*)(C)C(=O)NC(C)c1ccccc1 (repeat unit) | 156.50
13 | *c1ccc(Oc2ccc(C(=O)c3cccc(C(=O)c4ccc(Oc5ccc(N6C(=O)c7ccc(Oc8ccc(Sc9ccc(Oc%10ccc%11c(c%10)C(=O)N(*)C%11=O)cc9)cc8)cc7C6=O)cc5)cc4)c3)cc2)cc1 (repeat unit) | 192.00
14 | *c1ccc2c(c1)C(=O)N(c1ccc(OC(CCC)COc3ccc(N4C(=O)c5ccc(C(*)(C(F)(F)F)C(F)(F)F)cc5C4=O)cc3)cc1)C2=O (repeat unit) | 204.00
15 | *CCC(C)O[Si](C)(C)O* (repeat unit) | -88.00
16 | *c1ccc2c(c1)C(=O)N(c1ccc(C(=O)Nc3ccc(Oc4ccc(C(C)(C)c5ccc(Oc6ccc(NC(=O)c7ccc(N8C(=O)c9ccc(C(*)(C(F)(F)F)C(F)(F)F)cc9C8=O)cc7)cc6)cc5)cc4)cc3)cc1)C2=O (repeat unit) | 266.00
17 | *CC(*)C(=O)OC(C)(C)C (repeat unit) [Poly(t-butyl acrylate)] | 41 ± 0.9
18 | *c1ccc(CC(=O)Nc2ccc(NC(=O)Cc3ccc(-c4sc(*)c(-c5ccccc5)c4-c4ccccc4)cc3)cc2)cc1 (repeat unit) | 251.00
19 | *c1ccc2c(c1)C(=O)N(c1ccc(Oc3ccc(C(c4ccc(Oc5ccc(N6C(=O)c7ccc(C(*)(C(F)(F)F)C(F)(F)F)cc7C6=O)cc5C(F)(F)F)cc4)(C(F)(F)F)C(F)(F)F)cc3)c(C(F)(F)F)c1)C2=O (repeat unit) | 234.00
20 | *Oc1ccc(C(C)(C)c2ccc(OC(=O)c3ccc(C(=O)c4ccc(C(*)=O)cc4)cc3)cc2)cc1 (repeat unit) | 194.00
21 | *CCCCCOC(=O)c1ccc(/C=C/c2ccc(C(=O)O*)cc2)cc1 (repeat unit) | 60.00
22 | *Oc1cccc(C(=O)Nc2ccc(S(=O)(=O)c3ccc(NC(=O)c4cccc(Oc5nc(*)nc(Sc6ccccc6)n5)c4)cc3)cc2)c1 (repeat unit) | 304.00

Row | SMILES | glass transition temperature [°C]
23 | *Oc1ccc(C(c2ccc(OC(*)=O)cc2)C(Cl)Cl)cc1 (repeat unit) | 165.00
24 | *C(=O)c1ccc2c(c1)C(=O)N(c1ccc(NC(=O)c3cccc(C(=O)Nc4ccc(N5C(=O)c6ccc(*)cc6C5=O)cc4)c3)cc1)C2=O (repeat unit) | 247.00
25 | *CCCCCCCCCCCC(=O)Oc1ccc(-c2ccc(OC(=O)c3ccc4c(c3)C(=O)N(*)C4=O)cc2)cc1 (repeat unit) | 60.00
26 | *Oc1ccc(CC(NC(=O)CCc2ccc(OC(=O)CCCCC(*)=O)cc2)C(=O)OCCCC)cc1 (repeat unit) | 46.00
27 | */C=N/c1ccc(C(=O)OCCCCOCCCCOCCCCOC(=O)c2ccc(/N=C/c3ccc(*)s3)cc2)cc1 (repeat unit) | 25.00
28 | *Nc1ccccc1CCc1ccccc1NC(=O)Nc1ccc(CCc2ccc(NC(*)=O)cc2)cc1 (repeat unit) | 235.00
29 | *CCN(*)C(=O)c1cccc(F)c1F (repeat unit) | 110.00
30 | *Nc1ccc(*)cc1OCCCCCCCCCCCC (repeat unit) | 87.00
31 | *CC(*)(C)C(=O)OCCOCCOCCOc1ccc(/N=N/c2ccc(C#N)cc2)cc1 (repeat unit) | 37.00
32 | *CC(*)c1ccc(B(Oc2ccc(-c3c(F)c(F)c(F)c(F)c3F)c3cccnc23)c2ccc(C(C)(C)C)cc2)cc1 (repeat unit) | 245.00
33 | *CCCCCCCCNC(=O)c1ccc(C(=O)N*)c(Oc2ccccc2)c1 (repeat unit) | 96.00
34 | *CC(COC(=O)O*)OCCCCCCOc1ccc(/C=C/c2ccc([N+](=O)[O-])cc2)cc1 (repeat unit) | 32.00
35 | *c1ccc(NC2CC(=O)N(c3ccc(-c4sc(-c5ccc(N6C(=O)CC(Nc7ccc(-c8nc(C#N)c(C#N)nc8*)cc7)C6=O)cc5)c(-c5ccccc5)c4-c4ccccc4)cc3)C2=O)cc1 (repeat unit) | 231.00
36 | *Oc1ccc(NC(=O)c2ccc(Oc3ccc(C(C)(C)c4cccc(C(C)(C)c5ccc(Oc6ccc(C(=O)Nc7ccc(Oc8ccc(C(C)(C)c9ccc(*)cc9)cc8)cc7)cc6)cc5)c4)cc3)cc2)cc1 (repeat unit) | 147.00
37 | *CC(*)OC(=O)c1ccc([Si](C)(C)C)cc1 (repeat unit) | 130.50
38 | *CC(C)(C)O* (repeat unit) | 40.50
39 | *Oc1ccc(CC(NC(=O)Cc2ccc(OC(=O)CCCCCCCCC(*)=O)cc2)C(=O)OCCCCCC)cc1 (repeat unit) | 23.00
40 | *CCCCCCCCN(C)c1ccc(C(=O)c2ccc(N(*)C)cc2)cc1 (repeat unit) | 50.00
41 | *C(=O)Nc1ccc(Cc2ccc(NC(=O)c3ccc4c(c3)C(=O)N(c3ccc(/N=N/c5ccc(C)cc5)c(N5C(=O)c6ccc(*)cc6C5=O)c3)C4=O)cc2)cc1 (repeat unit) | 268.00
42 | *CC(*)(CC(=O)OCCc1ccccc1)C(=O)OCCc1ccccc1 (repeat unit) | 45.00
43 | *C/C=C/COC(=O)C(Cc1ccccc1)NC(=O)CCCCCCCCC(=O)NC(Cc1ccccc1)C(=O)O* (repeat unit) | 46.00
44 | *CCCCCCCNC(=O)C(OC)C(OC)C(=O)N* (repeat unit) | 87.00

Row | SMILES | glass transition temperature [°C]
45 | *CC(*)(C)C(=O)OCCN(CC)c1ccccc1 (repeat unit) | 37.50
46 | *OC(=O)Oc1ccc2c(c1)Oc1cc(*)ccc1C21c2ccccc2-c2ccccc21 (repeat unit) | 295.00
47 | *CCC(c1ccccc1)C(*)c1ccccc1 (repeat unit) | 104.30
48 | *CC(*)(C)C(=O)OCCN(CCCC)c1ccc(/N=N/c2ccc(S(=O)(=O)Nc3nccs3)cc2)cc1 (repeat unit) | 53.00
49 | *C(=O)c1ccc(N(*)CCCCCCCC)cc1 (repeat unit) | 30.00
50 | *CC(*)(C)C(=O)OCCCCCCOc1ccc(C(=O)Oc2ccc(-c3cccc(OC(=O)c4ccc(OC(=O)c5ccc(OCCCCCCCCCCCC)cc5)cc4)c3)cc2)cc1 (repeat unit) | 73.00
51 | *c1cc(SCCCCCC)c(*)s1 (repeat unit) | 32.00
52 | *CCCCCCCCCCOC(=O)c1ccc(-c2ccc(C(=O)O*)cc2)cc1 (repeat unit) | 52.00
53 | *Nc1ccc(C(c2ccc(NC(=O)c3cc(NC(=O)CCCN4C(=O)c5ccccc5C4=O)cc(C(*)=O)c3)cc2)(C(F)(F)F)C(F)(F)F)cc1 (repeat unit) | 240.00
54 | *C(=O)c1ccc2c(c1)C(=O)N(c1cccc(Cc3ccc(Cc4cccc(N5C(=O)c6ccc(*)cc6C5=O)c4)cc3)c1)C2=O (repeat unit) | 240.00
55 | *CC(O)COc1ccc(C2CC(C(C)C)CCC2(C)c2ccc(O*)cc2)cc1 (repeat unit) | 175.00
56 | *O[Si](*)(C)CCCCC(=O)OCCCCCCCCCCC(F)(F)C(F)(F)C(F)(F)C(F)(F)C(F)(F)C(F)(F)C(F)(F)C(F)(F)F (repeat unit) | -78.00
57 | *C(=O)c1ccc2c(c1)C(=O)N(c1c(C)cc(-c3cc(C)c(N4C(=O)c5ccc(*)cc5C4=O)c(C)c3)cc1C)C2=O (repeat unit) | 310.00
58 | *Oc1ccc(Oc2ccc(Nc3ccc(S(=O)(=O)c4ccc(Nc5ccc(*)cc5)cc4)cc3)cc2)cc1 (repeat unit) | 144.60
59 | *Oc1ccc(C2(c3ccc(Oc4ccc(C(=O)c5c(C(=O)c6ccc(*)cc6)c(-c6ccc(F)cc6)c(-c6ccc(F)cc6)c(-c6ccc(F)cc6)c5-c5ccc(F)cc5)cc4)cc3)c3ccccc3-c3ccccc32)cc1 (repeat unit) | 293.00
60 | *CC(*)(C)C(=O)OCCCCCCOc1ccc(OC(=O)c2ccc(OCCCC)cc2)cc1 (repeat unit) | 36.00
61 | *CC(*)C(=O)Oc1cc(C)cc(C)c1 (repeat unit) | 54.00
62 | *CC(*)c1ccc(CCCC)cc1 (repeat unit) [Poly(p-n-butyl styrene) ] | 6 ± 0.6
63 | *CC(C[N-][N+]#N)(C[N-][N+]#N)CO* (repeat unit) | -30.00
64 | *OC(C)CCCC(C)C(*)=O (repeat unit) | -33.00
65 | *Oc1ccc(-c2ccc(OC(=O)c3cccc(C(*)=O)c3)cc2)cc1 (repeat unit) | 185.50
